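Test compounds were applied to cells in 96-well plates for 48 hours at 5 doses. GI50 marks 50% less growth. The concentration for full growth arrest is given as TGI.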
Assays:
Test in all cases: NCI anticancer screen, dose series, 48 h
BT-549 breast = system: BT-549 breast
K-562 leukemia = system: K-562 leukemia
OVCAR-8 ovarian = system: OVCAR-8 ovarian
HT29 colon = system: HT29 colon
SN12C renal = system: SN12C renal
SK-OV-3 ovarian = system: SK-OV-3 ovarian
SNB-19 CNS = system: SNB-19 CNS
RPMI-8226 leukemia = system: RPMI-8226 leukemia
SK-MEL-28 melanoma = system: SK-MEL-28 melanoma
HCC-2998 colon = system: HCC-2998 colon

Compound | TGI (BT-549 breast) [µM] | TGI (K-562 leukemia) [µM] | TGI (OVCAR-8 ovarian) [µM] | TGI (HT29 colon) [µM] | TGI (SN12C renal) [µM] | TGI (SK-OV-3 ovarian) [µM] | TGI (SNB-19 CNS) [µM] | TGI (RPMI-8226 leukemia) [µM] | TGI (SK-MEL-28 melanoma) [µM] | GI50 (K-562 leukemia) [µM] | GI50 (OVCAR-8 ovarian) [µM] | GI50 (HT29 colon) [µM] | GI50 (HCC-2998 colon) [µM] | TGI (HCC-2998 colon) [µM] | GI50 (SN12C renal) [µM] | GI50 (SK-OV-3 ovarian) [µM] | GI50 (SNB-19 CNS) [µM] | GI50 (RPMI-8226 leukemia) [µM] | GI50 (SK-MEL-28 melanoma) [µM] | GI50 (BT-549 breast) [µM]
COC(=O)c1ccc(/C=C(\c2ccc([N+](=O)[O-])o2)S(=O)(=O)c2ccc(NC(C)=O)cc2)o1 | 5.43 | 18.1 | 11.8 | 5.76 | 1.36 | 38.2 | 32.2 | 3.03 | 17.6 |  |  |  |  |  |  |  |  |  |  | 
NC1CCCCC1N.O=C1C=C/C(=C(/c2ccc(O)c(Br)c2)c2ccccc2S(=O)(=O)[O-])C=C1Br.O=C1C=C/C(=C(/c2ccc(O)c(Br)c2)c2ccccc2S(=O)(=O)[O-])C=C1Br.[Pt+4] |  | > 100 | > 100 | > 100 | > 100 | > 100 | > 100 | > 100 | 38.2 | 8.79 | 1.27 | 1.67 | 4.66 | > 100 | 3.59 | 54.2 | 7.14 | 6.29 | 2.35 | 
N#CCC(=O)N/N=C1/C(=O)N(c2cc(Cl)ccc2Cl)C(=O)C(=O)C1c1nc2ccccc2s1 (stereo not drawn) |  | > 100 | > 100 | > 100 | > 100 | > 100 | > 100 | > 100 | > 100 |  |  |  |  | > 100 |  |  |  |  |  | 
NS(=O)(=O)c1ccc(NC(=O)Cc2nc3ccccc3s2)cc1 |  | 59.4 | 34.9 | 35.4 | 30.9 | 40.5 | 49.5 | 74.1 | 32 |  |  |  |  | 35.8 |  |  |  |  |  | 
CSc1ccc2c(cc1=O)[C@@H](NC(=O)c1ccc(Cl)cc1)CCc1cc(O)c(O)c(O)c1-2 |  | 68.3 | > 100 | > 100 | 75.8 | > 100 | > 100 | 91.5 | > 100 |  |  |  |  | > 100 |  |  |  |  |  | 
CCN(CC)CC(C)C(=O)/C=C/c1ccc(C)cc1 (stereo not drawn) |  | > 100 | 11.3 | 3.31 | 3.02 | 30.7 | 30.5 | > 100 | 3.69 |  |  |  |  | 9.28 |  |  |  |  |  | 
CSc1nc2nn(Cc3ccccc3)cc2c(=O)[nH]1 |  | > 100 | > 100 | > 100 | > 100 | > 100 | > 100 | > 100 | > 100 |  |  |  |  | > 100 |  |  |  |  |  | 
CCCCNS(=O)(=O)c1n[nH]c(=O)[nH]c1=O | > 100 | > 100 | > 100 | > 100 | > 100 | > 100 | > 100 | > 100 | > 100 |  |  |  |  |  |  |  |  |  |  | 
O=C(N/C(=C\c1cccc([N+](=O)[O-])c1)c1nc2ccccc2[nH]1)c1ccccc1 |  | > 100 | > 100 | > 100 | > 100 | > 100 | > 100 | > 100 | 68.9 |  |  |  |  | > 100 |  |  |  |  |  | 
Cn1c2c(c3ccccc31)CCN(CCCCN1CCN(c3ccccc3)CC1)C2=O |  | > 56 | > 56.2 | 25.4 | > 91.4 | > 100 | > 100 | > 92.3 | > 61.8 |  |  |  |  | 31.7 |  |  |  |  |  | 
Cc1cnc2oc3ccc(O)cc3c2c1-c1ccccc1 | 98.8 | > 100 | > 100 | > 100 | 47.3 | 86.9 | > 100 | > 100 | > 100 | > 100 | 99 | > 100 |  |  | 10 | 25 | 34.3 | > 100 | > 100 | 19.8
CC(C)(C)c1cc(CCCCCCCC2(CCCCCCCc3cc(C(C)(C)C)cc(C(C)(C)C)c3)OC(COCCOCCCCCC#N)C(COCCOCCCCCC#N)O2)cc(C(C)(C)C)c1 (stereo not drawn) |  | > 100 | > 100 | > 100 | > 100 | > 100 | > 100 |  | > 100 |  |  |  |  | > 100 |  |  |  |  |  | 
O=C(/C=C/c1ccccc1O)c1ccc([N+](=O)[O-])cc1 |  | 71.6 | 29.1 | 36.7 | 30.8 | 70.7 | 35.8 |  | 94.4 |  |  |  |  | 30.1 |  |  |  |  |  | 
CCn1c2ccccc2c(=O)c2c(OC)ccc(OC)c21 |  | > 100 | > 100 | > 100 | > 100 | > 100 | > 100 | > 100 |  |  |  |  |  |  |  |  |  |  |  | 
CC1(C)N=C(N)N=C(N)N1c1ccc(OCCCNC(=O)Nc2cccc(S(=O)(=O)F)c2)c(Cl)c1 |  | > 100 | > 100 |  |  | > 100 | > 100 | > 100 | > 100 | 0.598 | 7.02 |  | 8.55 | > 100 |  | 86.2 | 1.22 | 41.4 | 8.79 | 
COC(=O)c1ncc2c(=O)[nH]c3ccccc3c2c1C(=O)OC |  | > 100 | > 100 | > 100 | > 100 |  | > 100 | > 100 | > 100 |  |  |  |  | > 100 |  |  |  |  |  | 
CC(C)(C)C(=O)Nc1cccc2oc(-c3ccccc3)cc12 |  | > 100 | > 100 | > 100 | > 100 | > 100 | > 100 | > 100 | > 100 |  |  |  |  | > 100 |  |  |  |  |  | 
C/C(=N\OCC(O)CNCCSCc1ccccc1)c1ccccc1Cl (stereo not drawn) |  | 92.9 | 32 | 41.4 | 34.8 | 35.4 | 39.7 | 43.4 | 37.5 |  |  |  |  | 40.9 |  |  |  |  |  | 
CCCCCCn1c(SC)nc(COC(=O)NC)c1COC(=O)NC | 34 | > 100 | 34.3 | 36.2 | 31.3 | 33.2 | 29.8 | 67.7 | 32.4 |  |  |  |  |  |  |  |  |  |  | 
O=C(NCCCl)Nc1cccnc1 |  | > 100 | 27.9 | 34.9 | 64.7 | 43.5 | 80.4 | 86.6 | > 100 |  |  |  |  | 37.5 |  |  |  |  |  | 
O=C(O)c1ccc(C(O)(c2ccccc2)c2ccccc2)cc1 | > 100 | > 100 | > 100 |  | > 100 | > 100 | > 100 | > 100 | > 100 |  |  |  |  |  |  |  |  |  |  | 
Cc1[nH]c2ccccc2c1CC/C(=N\Nc1ccccc1)c1ccccc1 |  | > 100 | > 100 | > 100 |  | > 100 |  | > 100 | > 100 |  |  |  |  | > 100 |  |  |  |  |  | 

— PubChem BioAssay (NCI)
